Data: patent US20230201285A1, “GRANULAR C[…] WATER DISPERSIBLE CANNABINOIDS AND METHODS OF MAKING THE SAME” (priority 2021, published 2023)

Test: Emulsion formation of CBD powder in water with emulsifier or co-solvent
Format: physicochemical
Conditions: 200 mg CBD powder, 40 mL water, shaken five minutes
Description: A study was conducted with several different emulsifiers or co-solvents added to water and CBD powder.
In a first experiment, five 50 mL centrifuge tubes were each filled with 40 mL of water and 200 mg of CBD powder. Then, increasing amounts of PEG-400 (65 mg, 130 mg, 195 mg, 260 mg, and 650 mg) were added respectively to each centrifuge tube, which were then placed on a tabletop shaker and mechanically shaken on high for five minutes. […] No emulsion, however, was immediately formed after mixing.
In a second experiment, four 50 mL centrifuge tubes were each filled with 40 mL of water and 200 mg of CBD powder. Then, increasing amounts of TWEEN 80 (160 mg, 320 mg, 800 mg, and 1600 mg) were added respectively to each centrifuge tube, which were then placed on a tabletop shaker and mechanically shaken on high for five minutes. […] Further, CBD powder was still floating around in each tube.
(§1) In a third experiment, four 50 mL centrifuge tubes were each filled with 40 mL of water and 200 mg of CBD powder. Then, increasing amounts of sodium dodecyl sulfate (SDS) (10 mg, 25 mg, 50 mg, and 100 mg) were added respectively to each centrifuge tube, which were then placed on a tabletop shaker and mechanically shaken on high for five minutes. […] Further, CBD residue was observed on the bottom of each tube.
as §1, with “Finally, in” for “In”, “fourth” for “third”, “glycerol monostearate (GMS)” for “sodium dodecyl sulfate (SDS)”, “bottom and sides” for “bottom”

**Q.** Which results are given for `C=C(C)[C@@H]1CCC(C)=C[C@H]1c1c(O)cc(CCCCC)cc1O` [CBD powder, cannabidiol]?
**A.** emulsion formation (GMS 10-100 mg): no emulsion was formed in any tube; emulsion formation (PEG-400 65-650 mg): No emulsion; emulsion formation (SDS 10-100 mg): no emulsion was formed in any tube; emulsion formation (TWEEN 80 160-1600 mg): no emulsion was formed in any tube
